The text below walks through data of patent publication US20210130291A1, “METHODS FOR TREATING DIABETES USING VDAC1 INHIBITORS” (THE NATIONAL INSTITUTE FOR BIOTECHNOLOGY IN THE NEGEV LTD., priority 2016, published 2021).

A word on the inhibition: it is the share of the control response that was lost under treatment.

Molecules are shown by their SMILES.

Experiment [1] deals with db/db mice. Nature of the experiment: Oral (gavage) administration of VBIT-4 to db/db mice, blood glucose. In kind it is in vivo, mouse. The protocol:
Next, the effect of orally administered VBIT-4 on blood glucose in db/db mice was examined. VBIT-4 at the indicated doses or vehicle was administered by gavage to db/db mice from the age of 6-11 weeks. Blood was sampled and […] once a week. Blood glucose was measured by a handheld device ContourXt (Bayer) using blood glucose strips.

In experiment [2] the test system is TXNIP. The following applies: insulin-secreting cells and endothelial cells (Shaked 2011; Li 2015); cited from earlier work.
In experiment [3] the test system is VDAC1 in islets from T2D donors. Kind of experiment: VDAC1 expression and localization in islets of T2D donors with documented metformin therapy. Also noted: species or system human.
Experimental: Donors were grouped according to HbA1c i.e. less than 6% (ND), between 6% and 6.5% (IGT), higher than 6.5% or history of diabetes (T2D). […] The islets were then hand-picked under stereomicroscope prior to use. […] Total RNA from handpicked mouse islets, human donor islets (Diabetic and non-diabetic) or [MUT] cells were extracted using RNAeasy (Qiagen, Hilden, Germany). […] Concentration and purity of total RNA was measured with a NanoDrop ND-1000 spectrophotometer (A260/A280>1.9 and A260/A230>1.4) (NanoDrop Technologies, Wilmington, Del.) and RNA Quality Indicator (RQI) higher than 8.0 (Experion Automated Electrophoresis, Bio-Rad, USA) was considered to be high-quality total RNA preparations. […] The qPCR was carried out as follows: 50° C. for 2 minutes, 95° C. for 10 minutes, 40 cycles of 95° C. for 15 seconds, and 60° C. for 1 minute. […] Isolated human or mouse islets as well as INS-1 cells were seeded on the glass-bottom dish cultured overnight. […] Primary antibodies against mouse VDAC1 (Abcam), goat VDAC2 (Abcam) and Guinea pig insulin (Eurodiagnostica) were diluted in blocking buffer and incubated overnight at 4° C. Immunoreactivity was quantified using fluorescently labeled secondary antibodies (1:200) and visualized by confocal microscopy (Carl Zeiss, Germany). The ratio is calculated by mean intensity of plasma membrane to mean intensity in cytosol, according to the formula:
The test system of experiment [4] is islets of diabetic db/db mice. Nature of the experiment: ATP content, ATP release and GSIS in islets of diabetic db/db mice. The format is cell-based, mouse. How it is done:
5 weeks old db/db mice and control (C57/bl) (Janvier Laboratory, France), weighing 18-25 g, were used throughout the experiments. They were given a standard pellet diet (B&K) and tap water ad libitum. The experimental procedures were approved by the Ethics Committee for Animal Research at Lund University. Isolation of pancreatic islets was performed by retrograde injection of a collagenase solution via the bile-pancreatic duct and islets were then collected under a stereomicroscope at room temperature.
Human pancreatic islets were collected under a stereomicroscope at room temperature and cultured at 5.5 or 20 mM glucose in the absence or presence of test agents for 72 h. Thereafter the islets were washed and preincubated for 30 min at 37° C. in Krebs Ringer bicarbonate buffer, pH 7.4, supplemented with N-2 hydroxyethylpiperazine-N′-2-ethanesulfonic acid (10 mM), 0.1% bovine serum albumin, and 1 mM glucose. Each incubation vial contained 12 islets in 1.0 ml KRB buffer solution and treated with 95% O2 and 5% CO2 to obtain constant pH and oxygenation. After preincubation, the buffer was changed to a medium containing either 1 mM or 16.7 mM glucose. The islets were then incubated for 1 h at 37° C. in a metabolic shaker (30 cycles per min). Immediately after incubation an aliquot of the medium was removed for analysis of insulin and the islets were incubated in acid-ethanol for insulin content determination by radioimmunoassay.
ATP release from isolated mouse or human islets or from INS-1 cells after transfection with mitochondrial targeted VDAC1 (mtVDAC1) or plasma membrane targeted VDAC1 (plVDAC1) plasmids was determined using a luminometric assay kit according to manufacturer's recommendation (Biovision). After incubation of islets (50/vial) or INS-1 cells for 60 min, an aliquot of the media was removed for subsequent measurements of released ATP. Then the islets or INS-1 cells were washed 3 times and the lysates were used for measurements of ATP and protein contents followed the protocol provided by the vendor.

The target in experiment [5] is VDAC1 (Rattus norvegicus, UniProt Q9Z2L0). Nature of the experiment: Channel conductance of VDAC1 reconstituted in planar lipid bilayer.
Sequence of VDAC1 (Q9Z2L0 whole entry): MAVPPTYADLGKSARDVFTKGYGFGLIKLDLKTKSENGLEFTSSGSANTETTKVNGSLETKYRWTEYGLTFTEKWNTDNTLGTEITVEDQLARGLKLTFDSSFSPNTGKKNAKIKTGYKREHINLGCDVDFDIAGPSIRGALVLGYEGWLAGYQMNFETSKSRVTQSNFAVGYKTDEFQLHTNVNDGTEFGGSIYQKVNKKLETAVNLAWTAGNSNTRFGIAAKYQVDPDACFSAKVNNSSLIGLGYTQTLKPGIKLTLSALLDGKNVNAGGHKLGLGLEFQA

`O=C(CC(CO)N1CCN(c2ccc(OC(F)(F)F)cc2)CC1)Nc1ccc(Cl)cc1` (racemic) [VBIT-4, N-(4-chlorophenyl)-4-hydroxy-3-(4-(4-(trifluoromethoxy)phenyl)-piperazin-1-yl)butanamide]: the blood glucose entry in experiment [1] (daily gavage for 5 weeks, age 6-11 weeks (FIG. 8)) is “reduced blood glucose”. In addition, in experiment [1] (gavage, 10 mg/Kg body weight, 5 weeks), the “reduction of blood glucose concentration” value is on record as “the reduction was significant along the entire trail period”.
In the case of `CN(C)C(=N)N=C(N)N` [metformin], the “TXNIP activation by high glucose concentrations” value in experiment [2] is “inhibits TXNIP activation”. In experiment [3] (islets from T2D donors with documented metformin therapy (n=4)), the “islet VDAC1 mRNA” value is “did not display elevated VDAC1 mRNA”. For the same molecule, the “VDAC1 localization in β-cells” value in experiment [3] (single examined T2D donor with documented metformin therapy (FIG. 3a, 3b)) is “remained intracellular”. The “insulin secretion in low glucose” value in experiment [4] (islets from hyperglycemic db/db mice (FIG. 6c)) is given as “no effect”. Also, the “cellular ATP levels” value in experiment [4] (islets from hyperglycemic db/db mice, acute addition 1 h, VDAC1 antibody 10 nM, metformin 20 μM (FIG. 6a)) is listed as “increased its cellular levels”. The ATP release entry in experiment [4] (islets from hyperglycemic db/db mice, acute addition 1 h, VDAC1 antibody 10 nM, metformin 20 μM (FIG. 6b)) is “reduced ATP release”. Further, the “insulin secretion at 16.7 mM glucose” value in experiment [4] (islets from hyperglycemic db/db mice, compared to control (FIG. 6c)) is recorded as “increased insulin secretion”. Also, in experiment [5] (metformin 30 μM, 10-30 min after addition (FIG. 4g)), the “conductance of VDAC1 reconstituted into a planar lipid bilayer” value is “blocks conductance”. Also, the inhibition at 30 µM in experiment [5] (read-out: inhibition of channel conductance) is 50%.
